Assay results taken from patent US5661146A, “Substituted dibenzoxazepine urea compounds, pharmaceutical compositions and methods of use” (G.D. Searle & Co., priority 1995, dated 1997).

What was measured:
[1] = molecular target: T1, prostaglandin E2 -induced contractions of segments of guinea pig ileum (Cavia porcellus, UniProt A0A286XHJ6); assay: Prostaglandin (PGE) Antagonism Assay (prostaglandin E2-induced contractions of guinea pig ileum segments); details: initial test compound concentration 3 micromolar
T1 construct: Segments of ileum about 2 cm long were then cut and mounted in a 10 mL tissue bath; from tissue; host or cells: ileum segments of male albino guinea pigs
T1 sequence (A0A286XHJ6 1-405): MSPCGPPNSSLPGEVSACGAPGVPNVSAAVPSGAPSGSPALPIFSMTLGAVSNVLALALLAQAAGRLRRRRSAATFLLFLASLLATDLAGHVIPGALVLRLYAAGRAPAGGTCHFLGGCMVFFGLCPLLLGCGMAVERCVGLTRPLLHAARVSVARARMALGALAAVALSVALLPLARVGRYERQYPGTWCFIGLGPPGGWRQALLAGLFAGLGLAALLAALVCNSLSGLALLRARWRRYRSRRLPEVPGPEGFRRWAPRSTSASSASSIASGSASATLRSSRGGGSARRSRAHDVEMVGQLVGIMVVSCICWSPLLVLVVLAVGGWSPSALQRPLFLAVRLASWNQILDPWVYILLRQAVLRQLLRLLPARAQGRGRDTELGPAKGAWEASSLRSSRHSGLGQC
Text: The ilea were then quickly removed from the guinea pigs and placed in a modified Tyrode solution, a solution which is known to those skilled in the art, containing one-half of the usual amount of magnesium ions. […] Data for a control prostaglandin E2 dose response curve plotting concentration of prostaglandin E2 versus the intensity of contractions, detected isotonically, was then obtained by experimentally adjusting the dose of the prostaglandin E2 being injected into the tissue bath, in a manner known by those of skill in the art. Solutions or suspensions containing an initial concentration (3 micromolar) of a test compound in modified Tyrode solution ("test solutions/suspensions") were then separately substituted for the control bath solution. Each test solution/suspension was then kept in constant contact with the ileum tissue, except for brief periods to drain the bath in preparation for rinsing with fresh test solution/suspension. A second prostaglandin E2 dose response curve was then generated for prostaglandin E2 in the presence of a test compound.

[2] = test system: mice; assay: Writhing Assay (PBQ-induced writhing, analgesic activity in mice); assay type: in vivo, mouse (Charles River male albino mice); details: among compounds of the invention tested
Text: The Writhing Assay is one of the most widely-used experimental procedures for measuring the analgesic activity of different narcotic and nonnarcotic analgesic agents, and involves the continuous, chemically-induced pain of visceral origin to an animal, such as a mouse or rat. [Gyires et al., Arch. int. […] Drugs which reduce the number of writhes of the animal appear to restore the normal nociceptive threshold of the animal. […] Charles River male albino mice, weighing 20 to 30 grams, were used in this assay. […] Ten mice which were given saline in place of a test compound of the invention were used as a control group. Five minutes later, each mouse was individually placed into a glass beaker for observation, and the number of writhes occurring during the following ten-minute period was counted. […] The standard initial screening dose of a test compound employed in this assay was 30 mpk […].

PGE IN GUINEA PIG ILEUM, dose ratio given as activity word [1] | Structure (SMILES) | potency ranking in the Writhing Assay (in words) [2]
Active | CCN(CC)CCCCCOC(=O)N1Cc2ccccc2Oc2ccc(Cl)cc21 [Example 29, 5-(diethylamino)pentyl 8-chlorodibenz[b,f]-[1,4]oxazepine-10(11H)-carboxylate] | –
– | COC(=O)[C@H](C)NC(=O)N1Cc2ccccc2Oc2ccc(Cl)cc21 [Example 32, methyl (L)-2R-[[(8-chlorodibenz[b,f][1,4]oxazepine-10-(11H)-yl)carbonyl]amino]propanoate] | most potent compound of the invention tested in this assay
